According to PMC9150102 (Journal of Medicinal Chemistry, 2022):

System: STZ diabetic rats
Test: Echocardiography (hemodynamics) in STZ diabetic rats during i.v. infusion
Format: in vivo, rat
Procedure: Drug effects reached a plateau at 15 min of infusion; 10 min after discontinuation of the infusion, most echo indexes affected by the compound returned to the basal level.
Echocardiographic parameters were measured before (basal) and at 15 and 30 min during drug infusion and 10 min after drug interruption under urethane anesthesia. Data are the mean ± SEM; all the results of echocardiographic indexes are summarized in Table S2; N = 13; *p < 0.05 (one-way RM ANOVA).
Diabetes was induced in Sprague Dawley male rats (150–175 g) by a single i.v. STZ group (50 mg/kg in citrate buffer) injection in the tail vein. Control (healthy group) rats received vehicle (citrate buffer).
Rats were studied by transthoracic echocardiographic under anesthesia (1.25 g/kg urethane, i.p). Left-ventricular end-diastolic (LVEDD) and end-systolic (LVESD) diameter, posterior wall (PWT), and interventricular septal thickness (IVST) were measured according to the American Society of Echocardiography guidelines.[16] FS was calculated as FS = (LVEDD – LVESD)/LVEDD. Trans-mitral flow velocity was measured (pulsed Doppler) to obtain early and late filling velocities (E and A waves) and E wave deceleration time (DT). […]
Hemodynamic studies in rats with diabetic cardiomyopathy
Control (healthy group) rats received STZ vehicle (citrate buffer). […]
were considered diabetic9.
Two-dimensionally guided M-mode recordings were […]
the American Society of Echocardiography guidelines13. Fractional shortening was calculated as FS = […]
E wave deceleration time (DT). […]
jugular vein for drug infusion in rats. Rats were randomly submitted to an echocardiographic study […]
intravenous infusion at the dose of 0.2 mg/kg/min. Echo parameters were measured at 15 and 30 min after infusion start and 10 min after drug interruption under urethane anesthesia. Data are mean ± SEM. *p<0.05 vs basal (one-way ANOVA for repeated measurements). […]
basal after 15 min after 30 min after 10 min

[1] = i.v. infusion 0.2 mg/kg/min, after 15 min
[2] = i.v. infusion 0.2 mg/kg/min, after 30 min

## C[C@]12CC[C@H](CCCC(=O)O)C[C@@H]1[C@@H](O)C[C@@H]1[C@@H]2CC[C@]2(C)C(=O)CC[C@@H]12 [Compound 5]
10 min after drug interruption
  CO: 153,2±10,67 ml/min
  DT: 52,4±4,36 ms
  DT/E: 68,2±6,13 s2/mm
  E/A: 1,37±0,06
  E/DT: 16,5±1,78 m/s2
  E/e': 40,22±0,82
  EF: 92,66±1,05%
  FS: 61,3±2,05%
  HR: 228±10 bpm
  IVSTd: 1,68 ± 0,07 mm
  IVSTs: 2,55 ± 0,10 mm
  LVEDD: 6,84 ± 0,17 mm
  LVESD: 2,64 ± 0,17 mm
  PWTd: 1,17 ± 0,07 mm
  PWTs: 2,42 ± 0,10 mm
  SV: 0,68±0,05 ml
  a': 26,22±1,31 mm/s
  e': 19,4±0,60 mm/s
  e'/a': 0,76±0,047
  s': 20,6±0,53 mm/s
[1]
  CO: 177,2±11,27 ml/min
  DT: 42,46±2,83 ms
  DT/E: 49,52±3,44 s2/mm
  E/A: 1,36±0,05
  E/DT: 21,49±1,61 m/s2
  E/e': 37,49±1,2
  EF: 90,68±1,4%
  FS: 58,1±2,38%
  HR: 268±15 bpm
  IVSTd: 1,81±0,08 mm
  IVSTs: 2,34±0,10 mm
  LVEDD: 6,86±0,17 mm
  LVESD: 2,87±0,18 mm
  PWTd: 1,16±0,07 mm
  PWTs: 2,59±0,09 mm
  SV: 0,68±0,05 ml
  a': 29,13±1,82 mm/s
  e': 23,33±0,73 mm/s
  e'/a': 0,84±0,07
  s': 22,4±0,86 mm/s
[2]
  CO: 175,15±9,4 ml/min
  DT: 42,15±2,74 ms
  DT/E: 48,51±4,56 s2/mm
  E/A: 1,34±0,06
  E/DT: 23,18±2,32 m/s2
  E/e': 37,45±1,24
  EF: 92,19±1,18%
  FS: 60,7±2,31%
  HR: 252±14 bpm
  IVSTd: 1,71±0,1 mm
  IVSTs: 2,55±0,13 mm
  LVEDD: 6,94±0,15 mm
  LVESD: 2,73±0,18 mm
  PWTd: 1,22±0,07 mm
  PWTs: 2,53±0,10 mm
  SV: 0,71±0,04 ml
  a': 28,94±1,47 mm/s
  e': 24,24±0,65 mm/s
  e'/a': 0,86±0,05
  s': 21,8±0,78 mm/s
i.v. infusion at a single dose
  systolic function: did not affect systolic function significantly
